Km data for one molecule are collected here from paper PMC9110600, “Purification, identification and characterization of Nag2 N-acetylglucosaminidase from Trichoderma virens strain mango” (Botanical Studies, 2022).

The assay addresses T1, TvmNAG2 (Trichoderma virens, UniProt G9MXZ5).
T1 construct: gene NAG2; mature (signal peptide removed)
As to the kind of experiment: p-nitrophenol release at […] nm, Lineweaver-Burk. To be noted: standard assay: 50 mM phosphate buffer pH 5, 65 °C, 30 min. It is filed as biochemical.

T1 sequence (G9MXZ5 entry or part of it): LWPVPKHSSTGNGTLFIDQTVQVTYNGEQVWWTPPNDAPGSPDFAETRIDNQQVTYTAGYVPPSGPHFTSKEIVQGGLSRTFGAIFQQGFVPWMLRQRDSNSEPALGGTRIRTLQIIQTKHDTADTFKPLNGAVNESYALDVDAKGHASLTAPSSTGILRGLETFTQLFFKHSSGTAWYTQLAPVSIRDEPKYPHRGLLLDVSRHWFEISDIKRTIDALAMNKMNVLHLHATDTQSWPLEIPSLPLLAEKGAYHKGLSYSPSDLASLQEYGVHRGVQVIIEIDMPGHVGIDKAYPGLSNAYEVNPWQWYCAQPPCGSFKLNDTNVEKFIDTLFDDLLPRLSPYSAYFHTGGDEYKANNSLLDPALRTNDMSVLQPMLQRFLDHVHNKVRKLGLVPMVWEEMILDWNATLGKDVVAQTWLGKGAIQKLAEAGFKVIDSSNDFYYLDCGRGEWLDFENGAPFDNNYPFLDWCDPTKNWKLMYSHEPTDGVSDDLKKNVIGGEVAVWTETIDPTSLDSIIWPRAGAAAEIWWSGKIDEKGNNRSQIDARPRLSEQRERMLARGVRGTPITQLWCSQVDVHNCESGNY

Regarding `CC(=O)N[C@H]1[C@H](Oc2ccc([N+](=O)[O-])cc2)O[C@H](CO)[C@@H](O)[C@@H]1O` [pNP-NAG], the Michaelis-Menten constant (Km) was roughly 450 µM.
